Read-outs that look alike come from different tables or passages of the source. Starred links: 1 amine or outer side, 2 acyl side, 3 side chain; linkers in the order of their positions; H or OH if unused. Non-standard residues stand in square brackets, D forms with d. Residues, ends and D or L forms follow the SMILES beside them. Groups on a side chain read outwards from the residue. *: point of attachment. C18 diacid = O=C(O)CCCCCCCCCCCCCCCCC(=O)*; γGlu = O=C(O)[C@H](CCC(=O)[*:2])N[*:1]; εLys = N[C@@H](CCCCN[*:1])C(=O)[*:2]; AEEA = NCCOCCOCC(=O)O; Aib = CC(C)(N)C(=O)O
How the values were obtained:
[1] = Pharmacokinetic study in dogs, oral dosing of tablet compositions with SNAC; format: in vivo, Beagle dogs; conditions: for Tmax / half-life: male
Outline: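 The tablets held 3-4 mg compound plus 100-300 mg SNAC and were given to fasted male beagles (6-8 per group); non-compartmental PK per animal.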

human GIP receptor = biological target: T1, human GIP receptor (Homo sapiens, UniProt P48546); assay: In vitro functional potency, CRE luciferase reporter gene assay, whole BHK cells expressing hGIPR; format: cell-based; conditions: BHK CRE luc2P hGIPR cells
T1 construct: expressed in transfected cells; host or cells: BHK (parent line BHKTS13), clone BHK CRE luc2P hGIPR
T1 sequence (P48546 22-466): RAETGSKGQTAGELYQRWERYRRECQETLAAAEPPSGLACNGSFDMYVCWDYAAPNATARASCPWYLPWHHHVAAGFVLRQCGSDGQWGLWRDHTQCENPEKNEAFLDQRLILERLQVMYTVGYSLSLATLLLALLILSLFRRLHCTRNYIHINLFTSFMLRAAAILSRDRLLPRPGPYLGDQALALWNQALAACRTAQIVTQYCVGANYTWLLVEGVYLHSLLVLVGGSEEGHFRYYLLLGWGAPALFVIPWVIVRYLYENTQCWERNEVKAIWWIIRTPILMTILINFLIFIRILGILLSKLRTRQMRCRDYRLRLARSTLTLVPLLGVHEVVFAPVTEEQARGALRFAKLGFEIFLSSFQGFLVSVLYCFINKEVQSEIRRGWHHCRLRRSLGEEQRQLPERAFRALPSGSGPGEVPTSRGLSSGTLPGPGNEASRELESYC

human GLP-1 receptor = biological target: T2, human GLP-1 receptor (Homo sapiens, UniProt P43220); assay: In vitro functional potency, CRE luciferase reporter gene assay, whole BHK cells expressing hGLP-1R; format: cell-based; conditions: BHK CRE luc2P hGLP-1R cells
T2 construct: expressed in transfected cells; host or cells: BHK (parent line BHKTS13), clone BHK CRE luc2P hGLP-1R

[2] = in vivo; cited from earlier work
[3] = 0% HSA, read-out: hGIPR, CRE Luc 0% HSA EC50
[4] = hGIPR, CRE Luc 1% HSA EC50, 1% HSA
[5] = 0% HSA, read-out: hGLP-1R, CRE Luc 0% HSA EC50
[6] = hGLP-1R, CRE Luc 1% HSA EC50, 1% HSA

T2 sequence (P43220 24-463): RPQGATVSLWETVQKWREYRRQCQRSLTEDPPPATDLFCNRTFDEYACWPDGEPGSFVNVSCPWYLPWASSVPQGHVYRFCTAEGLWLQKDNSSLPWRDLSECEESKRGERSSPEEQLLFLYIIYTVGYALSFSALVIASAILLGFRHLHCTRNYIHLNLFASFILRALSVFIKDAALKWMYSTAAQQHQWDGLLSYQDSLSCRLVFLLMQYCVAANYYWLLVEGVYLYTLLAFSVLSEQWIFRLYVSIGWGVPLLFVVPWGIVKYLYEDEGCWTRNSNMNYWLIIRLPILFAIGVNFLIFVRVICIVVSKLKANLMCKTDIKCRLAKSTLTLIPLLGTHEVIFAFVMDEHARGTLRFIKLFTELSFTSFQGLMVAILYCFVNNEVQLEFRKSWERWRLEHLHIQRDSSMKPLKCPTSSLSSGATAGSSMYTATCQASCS

Molecule | AUC/Dose ([1]; dog, in vivo, po) [kg·h/L] | Tmax ([1]; beagle, dog, in vivo, po, Tmax) [h] | half-life ([1]; beagle, dog, in vivo, po, t1/2) [h] | EC50 (human GIP receptor; [3]) [nM] | EC50 (human GIP receptor; [4]) [nM] | EC50 (human GLP-1 receptor; [5]) [nM] | EC50 (human GLP-1 receptor; [6]) [nM] | half-life ([1]; dog, in vivo, oral tablet, SNAC 100 mg, test substance 3 mg, Beagle dogs, harmonic mean, read-out: t1/2 (converted)) [h] | Tmax ([1]; dog, in vivo, oral tablet, SNAC 100 mg, test substance 3 mg, Beagle dogs, median, read-out: Tmax) [h] | AUC/Dose ([1]; oral tablet, SNAC 100 mg, test substance 3 mg, Beagle dogs, arithmetic mean) [kg·h/L] | EC50 (human GIP receptor; hGIPR, CRE Luc 0% HSA EC50, 0% HSA) [nM] | EC50 (human GLP-1 receptor; hGLP-1R, CRE Luc 0% HSA EC50, 0% HSA) [nM] | half-life measured in man [2] [min]
CC[C@H](C)[C@H](NC(=O)[C@H](Cc1ccccc1)NC(=O)[C@H](CCC(=O)O)NC(=O)[C@H](CCCNC(=N)N)NC(=O)[C@H](C)NC(=O)[C@H](C)NC(=O)[C@H](CCC(N)=O)NC(=O)[C@H](CCCCNC(=O)[C@@H](N)CCCCNC(=O)[C@@H](N)CCCCNC(=O)CC[C@H](NC(=O)CCCCCCCCCCCCCCCCC(=O)O)C(=O)O)NC(=O)[C@H](CCC(=O)O)NC(=O)[C@H](CC(C)C)NC(=O)[C@H](Cc1ccc(O)cc1)NC(=O)[C@@H](NC(=O)[C@H](CO)NC(=O)[C@H](Cc1ccc(O)cc1)NC(=O)[C@H](CC(=O)O)NC(=O)[C@H](CO)NC(=O)[C@@H](NC(=O)[C@H](Cc1ccccc1)NC(=O)[C@@H](NC(=O)CNC(=O)[C@H](CCC(=O)O)NC(=O)C(C)(C)NC(=O)[C@@H](N)Cc1ccc(O)cc1)[C@@H](C)O)[C@@H](C)O)[C@@H](C)CC)C(=O)N[C@@H](CCC(=O)O)C(=O)N[C@@H](Cc1c[nH]c2ccccc12)C(=O)N[C@@H](CC(C)C)C(=O)N[C@@H](CC(C)C)C(=O)N[C@@H](C)C(=O)NCC(=O)NCC(=O)N1CCC[C@H]1C(=O)N[C@@H](CO)C(=O)N[C@@H](CO)C(=O)NCC(=O)N[C@@H](C)C(=O)N1CCC[C@H]1C(=O)N1CCC[C@H]1C(=O)N1CCC[C@H]1C(=O)N[C@@H](CO)C(=O)O [Compound No. 9] (H-Y[Aib]EGTFTSDYSIYLEK([εLys-εLys-γGlu-C18 diacid])QAAREFIEWLLAGGPSSGAPPPS-OH) | […] | 2 | […] | […] | […] | 0.0038 | 0.279 | – | – | – | – | – | –
CC[C@H](C)[C@H](NC(=O)[C@H](Cc1ccccc1)NC(=O)[C@H](CCC(=O)O)NC(=O)[C@H](CCCNC(=N)N)NC(=O)[C@H](C)NC(=O)[C@H](C)NC(=O)[C@H](CCC(N)=O)NC(=O)[C@H](CCCCNC(=O)COCCOCCNC(=O)COCCOCCNC(=O)CC[C@H](NC(=O)CCCCCCCCCCCCCCCCC(=O)O)C(=O)O)NC(=O)[C@H](CCC(=O)O)NC(=O)[C@H](CC(C)C)NC(=O)[C@H](Cc1ccc(O)cc1)NC(=O)[C@@H](NC(=O)[C@H](CO)NC(=O)[C@H](Cc1ccc(O)cc1)NC(=O)[C@H](CC(=O)O)NC(=O)[C@H](CO)NC(=O)[C@@H](NC(=O)[C@H](Cc1ccccc1)NC(=O)[C@@H](NC(=O)CNC(=O)[C@H](CCC(=O)O)NC(=O)C(C)(C)NC(=O)[C@@H](N)Cc1ccc(O)cc1)[C@@H](C)O)[C@@H](C)O)[C@@H](C)CC)C(=O)N[C@@H](CCC(=O)O)C(=O)N[C@@H](Cc1c[nH]c2ccccc12)C(=O)N[C@@H](CC(C)C)C(=O)N[C@@H](CC(C)C)C(=O)N[C@@H](C)C(=O)NCC(=O)NCC(=O)N1CCC[C@H]1C(=O)N[C@@H](CO)C(=O)N[C@@H](CO)C(=O)NCC(=O)N[C@@H](C)C(=O)N1CCC[C@H]1C(=O)N1CCC[C@H]1C(=O)N1CCC[C@H]1C(=O)N[C@@H](CO)C(=O)O [Compound No. 10] (H-Y[Aib]EGTFTSDYSIYLEK([AEEA-AEEA-γGlu-C18 diacid])QAAREFIEWLLAGGPSSGAPPPS-OH) | 8.4 | 1 | 36 | 0.0113 | 1.75 | 0.0039 | 0.94 | – | – | – | – | – | –
CC[C@H](C)[C@H](NC(=O)[C@H](Cc1ccccc1)NC(=O)[C@H](CCC(=O)O)NC(=O)[C@H](CCCNC(=N)N)NC(=O)[C@H](C)NC(=O)[C@H](C)NC(=O)[C@H](CCC(N)=O)NC(=O)[C@H](CCCCNC(=O)[C@@H](N)CCCCNC(=O)[C@@H](N)CCCCNC(=O)CC[C@H](NC(=O)CCCCCCCCCCCCCCCCC(=O)O)C(=O)O)NC(=O)[C@H](CCC(=O)O)NC(=O)[C@H](CC(C)C)NC(=O)[C@H](Cc1ccc(O)cc1)NC(=O)[C@@H](NC(=O)[C@H](CO)NC(=O)[C@H](Cc1ccc(O)cc1)NC(=O)[C@H](CC(=O)O)NC(=O)[C@H](CO)NC(=O)[C@@H](NC(=O)[C@H](Cc1ccccc1)NC(=O)[C@@H](NC(=O)CNC(=O)[C@H](CCC(=O)O)NC(=O)C(C)(C)NC(=O)[C@@H](N)Cc1ccc(O)cc1)[C@@H](C)O)[C@@H](C)O)[C@@H](C)CC)C(=O)N[C@@H](CC(N)=O)C(=O)N[C@@H](Cc1c[nH]c2ccccc12)C(=O)N[C@@H](CC(C)C)C(=O)N[C@@H](CC(C)C)C(=O)N[C@@H](C)C(=O)NCC(=O)NCC(=O)N1CCC[C@H]1C(=O)N[C@@H](CO)C(=O)N[C@@H](CO)C(=O)NCC(=O)N[C@@H](C)C(=O)N1CCC[C@H]1C(=O)N1CCC[C@H]1C(=O)N1CCC[C@H]1C(=O)N[C@@H](CO)C(=O)O [Compound No. 11] (H-Y[Aib]EGTFTSDYSIYLEK([εLys-εLys-γGlu-C18 diacid])QAAREFINWLLAGGPSSGAPPPS-OH; N-terminus assumed) | 7.1 | 1.4 | 34 | 0.0099 | 0.45 | 0.0033 | 0.132 | – | – | – | – | – | –
CC[C@H](C)[C@H](NC(=O)[C@H](Cc1ccccc1)NC(=O)[C@H](CCC(=O)O)NC(=O)[C@H](CCCNC(=N)N)NC(=O)[C@H](C)NC(=O)[C@H](C)NC(=O)[C@H](CCC(N)=O)NC(=O)[C@H](CCCCNC(=O)[C@@H](N)CCCCNC(=O)[C@@H](N)CCCCNC(=O)CC[C@H](NC(=O)CCCCCCCCCCCCCCCCC(=O)O)C(=O)O)NC(=O)[C@H](CCC(=O)O)NC(=O)[C@H](CC(C)C)NC(=O)[C@H](Cc1ccc(O)cc1)NC(=O)[C@@H](NC(=O)[C@H](CO)NC(=O)[C@H](Cc1ccc(O)cc1)NC(=O)[C@H](CC(=O)O)NC(=O)[C@H](CO)NC(=O)[C@@H](NC(=O)[C@H](Cc1ccccc1)NC(=O)[C@@H](NC(=O)CNC(=O)[C@H](CCC(=O)O)NC(=O)C(C)(C)NC(=O)[C@@H](N)Cc1ccc(O)cc1)[C@@H](C)O)[C@@H](C)O)[C@@H](C)CC)C(=O)N[C@@H](CCC(=O)O)C(=O)N[C@@H](Cc1c[nH]c2ccccc12)C(=O)N[C@@H](CC(C)C)C(=O)N[C@@H](CC(C)C)C(=O)N[C@@H](CCCNC(=N)N)C(=O)NCC(=O)NCC(=O)N1CCC[C@H]1C(=O)N[C@@H](CCC(=O)O)C(=O)N[C@@H](CO)C(=O)NCC(=O)N[C@@H](C)C(=O)N1CCC[C@H]1C(=O)N1CCC[C@H]1C(=O)N1CCC[C@H]1C(=O)N[C@@H](CO)C(=O)O [Compound No. 13] (H-Y[Aib]EGTFTSDYSIYLEK([εLys-εLys-γGlu-C18 diacid])QAAREFIEWLLRGGPESGAPPPS-OH) | – | – | – | – | 0.257 | – | 0.204 | 60 | 1.5 | 14.8 | 0.0139 | 0.0074 | –
hGLP-1: human glucagon-like peptide 1, native hormone whose half-life in man is cited from Meier et al. | – | – | – | – | – | – | – | – | – | – | – | – | 2 to 4

From US20230120597A1, “CO-AGONISTS AT GLP-1 AND GIP RECEPTORS SUITABLE FOR ORAL DELIVERY” (Novo Nordisk A/S, priority 2020, published 2023)
